Test results as given in US7157471B2, “Haloalkyl- and piperidine-substituted benzimidazole-derivatives” (Boehringer Ingelheim International GmbH, priority 2003, dated 2007).
Structures can show the parent of a compound that is named as a salt.

Columns and labels:
[1] = biological target: T1, human chemokine receptor CCR-3 (Homo sapiens, UniProt P51677); assay: CCR-3 receptor binding assay (SPA) with 125Jodine-eotaxin-1; settings: membranes of hCCR-3 transfected K562 cells, radioligand 125J rhEotaxin, 2 hours incubation; read-out: Binding constants Ki (Eotaxin at CCR-3-Rezeptor)
T1 construct: expressed in transfected cells; host or cells: K562 cell line (membranes)
T1 sequence (P51677 1-355): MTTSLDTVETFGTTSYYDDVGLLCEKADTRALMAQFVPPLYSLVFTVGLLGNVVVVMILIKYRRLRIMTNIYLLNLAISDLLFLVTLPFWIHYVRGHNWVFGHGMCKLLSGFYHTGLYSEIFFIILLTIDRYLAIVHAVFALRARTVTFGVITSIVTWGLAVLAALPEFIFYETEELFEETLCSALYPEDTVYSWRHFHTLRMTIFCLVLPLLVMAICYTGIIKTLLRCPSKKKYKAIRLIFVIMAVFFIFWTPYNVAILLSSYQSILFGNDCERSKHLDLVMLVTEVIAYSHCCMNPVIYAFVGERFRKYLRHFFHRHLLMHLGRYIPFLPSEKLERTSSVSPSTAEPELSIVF
Method: The CCR-3 receptor binding test is based on a K562 cell line (leukemia myelogenic blast cells) transfected with the human chemokine receptor CCR-3 (hCCR-3-Cl). The cell membranes were prepared by disrupting the hCCR-3 transfected K562 cells by nitrogen […] and centrifugation at 40000 g, 4° C. for 1 h. The membranes were re-suspended in the SPA incubation buffer without bovine serum albumin for storage in aliquots at −80° C.
The CCR-3 receptor binding assay with the radioligand ^125Jodine-eotaxin-1 was performed in a Scintillation Proximity Assay (SPA) design. Cell membranes of hCCR-3 Cl cells were diluted in suitable concentrations (0.5–5 ug protein/well) in 96 well microtiter plates (1450–401, Wallac).
The test incubation mixture comprising 60 μl of the membrane suspension, 80 μl of the Wheat Germ Agglutinin coated PVT beads (organic scintillator, Amersham Pharmacia biotech) in a concentration of 0,4 mg and 40 μl of radiolabelled ^125J rhEotaxin (Amersham, IM290) were incubated with 20 μl of the test compound (dissolved in DMSO dilutions) for 2 hours. […] Bound radioactivity was determined by scintillation counter (Micro Beta “Trilux”, Wallac).
Determination of affinity of test compounds (dissociation constant Ki) was calculated by iterative fitting of experimental data using the law of mass action based program “easy sys” (Schittkowski, Num Math 68, 129–142 (1994)).

| SMILES | melting point [°C] | Ki [1] [µM] |
| --- | --- | --- |
| Fc1ccc(SCCCN2CCC(n3c(C(F)(F)C(F)(F)F)nc4cc(F)ccc43)CC2)cc1 (as salt: hydrochloride) [Example 6, 2-Pentafluoroethyl-5-fluoro-1-{1-[3-(4-fluoro-phenylsulfanyl)-propyl]-piperidin-4-yl}-1H-benzoimidazole] | 208 to 209 |  |
| Fc1ccc(SCCCN2CCC(n3c(C(F)(F)C(F)(F)F)nc4cc(F)ccc43)CC2)cc1 [Example 6, 2-Pentafluoroethyl-5-fluoro-1-{1-[3-(4-fluoro-phenylsulfanyl)-propyl]-piperidin-4-yl}-1H-benzoimidazole] |  | 0.11 |
| Fc1ccc(SCCCN2CCC(n3c(CC(F)(F)F)nc4cc(F)ccc43)CC2)cc1 [Example 10, 2-(2,2,2-Trifluoroethyl)-5-fluoro-1-{1-[3-(4-fluoro-phenylsulfanyl)-propyl]-piperidin-4-yl}-1H-benzoimidazole] |  | 0.019 |
| Fc1ccc(SCCCN2CCC(n3c(CC(F)(F)F)nc4cc(F)ccc43)CC2)cc1 (as salt: hydrochloride) [Example 10, 2-(2,2,2-Trifluoroethyl)-5-fluoro-1-{1-[3-(4-fluoro-phenylsulfanyl)-propyl]-piperidin-4-yl}-1H-benzoimidazole] | 158 to 160 |  |
